Converted amounts (≈) assume the structure as drawn.
What was measured:
[1] = tested on: SPY 8668 (Streptococcus pyogens (ATCC8668)); assay: Microtitre plate assay, IC90 determination; format: cell-based; details: for IC90 (μg/ml) SPY 8668: Streptococcus pyogens (ATCC8668); for IC90: Streptococcus, ATCC8668, Streptococcus pyogens (ATCC8668), read-out: IC90 (μg/ml) SPY 8668
[2] = tested on: LMO 49594 (Listeria monocytogenes (ATCC49594)); assay: Microtitre plate assay, IC90 determination; format: cell-based; details: for IC90: Listeria monocytogenes, ATCC49594, Listeria monocytogenes (ATCC49594), read-out: IC90 (μg/ml) LMO 49594; for IC90 (μg/ml) LMO 49594: Listeria monocytogenes (ATCC49594)
[3] = tested on: SPN 6305 (Streptococcus pneumoniae (ATCC6305)); assay: Microtitre plate assay, IC90 determination; format: cell-based; details: for IC90 (μg/ml) SPN 6305: Streptococcus pneumoniae (ATCC6305); for IC90: Streptococcus pneumoniae, ATCC6305, Streptococcus pneumoniae (ATCC6305), read-out: IC90 (μg/ml) SPN 6305
Summary of the method: (§1)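 Growth-inhibition endpoint: resazurin added 3 h after inoculation, plates incubated overnight, fluorescence at 530/590 nm after 24 h at 37 °C. Inocula of roughly 10–60 CFU per well in Mueller-Hinton medium; compounds titrated five-fold. IC90 reported as μg/ml.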

[4] = tested on: STA 29213 (Staphylococcus aureus (ATCC29213)); assay: Microtitre plate assay, IC90 determination; format: cell-based; details: for IC90: Staphylococcus aureus, ATCC29213, Staphylococcus aureus (ATCC29213), read-out: IC90 (μg/ml) STA 29213; for IC90 (μg/ml) STA 29213: Staphylococcus aureus (ATCC29213)
Summary of the method: as §1

[5] = tested on: STA 25923 (Staphylococcus aureus (ATCC25923)); assay: Microtitre plate assay, IC90 determination; format: cell-based; details: for IC90: Staphylococcus aureus, ATCC25923, Staphylococcus aureus (ATCC25923), read-out: IC90 (μg/ml) STA 25923; for IC90 (μg/ml) STA 25923: Staphylococcus aureus (ATCC25923)
[6] = tested on: BSU 43639 (Bacillus subtilis (ATCC43639)); assay: Microtitre plate assay, IC90 determination; format: cell-based; details: for IC90: Bacillus subtilis, ATCC43639, Bacillus subtilis (ATCC43639), read-out: IC90 (μg/ml) BSU 43639; for IC90 (μg/ml) BSU 43639: Bacillus subtilis (ATCC43639)
[7] = tested on: PAE 27853 (Pseudomonas aeruginosa (ATCC27853)); assay: Microtitre plate assay, IC90 determination; format: cell-based; details: for IC90 (μg/ml) PAE 27853: Pseudomonas aeruginosa (ATCC27853); for IC90: Pseudomonas aeruginosa, ATCC27853, Pseudomonas aeruginosa (ATCC27853), read-out: IC90 (μg/ml) PAE 27853
[8] = tested on: STA RMETH (methicilline resistant Staphylococcus aureus (MRSA), a clinical isolate from the University of Antwerp); assay: Microtitre plate assay, IC90 determination; format: cell-based; details: for IC90: Staphylococcus aureus, MRSA, read-out: IC90 (μg/ml) STA RMETH
[9] = tested on: EFA 29212 (Enterococcus faecalis (ATCC29212)); assay: Microtitre plate assay, IC90 determination; format: cell-based; details: for IC90 (μg/ml) EFA 29212: Enterococcus faecalis (ATCC29212); for IC90: Enterococcus faecalis, ATCC29212, Enterococcus faecalis (ATCC29212), read-out: IC90 (μg/ml) EFA 29212

IC90 (μg/ml) SPY 8668 [1] [µg/mL]	IC90 [2] [µg/mL]	IC90 (μg/ml) SPN 6305 [3] [µg/mL]	IC90 [4] [µg/mL]	IC90 [5] [µg/mL]	IC90 [6] [µg/mL]	IC90 (μg/ml) PAE 27853 [7] [µg/mL]	IC90 (μg/ml) STA RMETH [8] [µg/mL]	IC90 (μg/ml) EFA 29212 [9] [µg/mL]	IC90 (μg/ml) LMO 49594 [2] [µg/mL]	IC90 (μg/ml) STA 29213 [4] [µg/mL]	IC90 (μg/ml) STA 25923 [5] [µg/mL]	IC90 (μg/ml) BSU 43639 [6] [µg/mL]	IC90 [1] [µg/mL]	IC90 [8] [µg/mL]	IC90 [9] [µg/mL]	melting point [°C]	IC90 [7] [µg/mL]	IC90 [3] [µg/mL]	Structure (SMILES)
48.7 (≈ 79.4 µM)	61.4 (≈ 100 µM)	61.4 (≈ 100 µM)	1.9 (≈ 3.1 µM)	61.4 (≈ 100 µM)	48.7 (≈ 79.4 µM)	9.7 (≈ 15.8 µM)	61.4 (≈ 100 µM)	61.4 (≈ 100 µM)	–	–	–	–	–	–	–	–	–	–	COc1ccc2cc(C(O)(CCCCN(C)C)C(c3ccccc3)c3cc4c(Br)cccc4nc3OC)ccc2c1 (stereo not shown) [Compound 27]
9.3 (≈ 15.9 µM)	–	2.3 (≈ 3.94 µM)	–	–	–	1.9 (≈ 3.26 µM)	58.4 (≈ 100 µM)	4.1 (≈ 7.03 µM)	9.3 (≈ 15.9 µM)	1.9 (≈ 3.26 µM)	58.4 (≈ 100 µM)	58.4 (≈ 100 µM)	–	–	–	–	–	–	COc1nc2ccc(Br)cc2cc1C(c1ccccc1)C(O)(CCCCN(C)C)c1ccc2ccccc2c1 (stereo not shown) [Compound 25]
11.9 (≈ 19.9 µM)	–	2.4 (≈ 4.02 µM)	–	–	–	11.9 (≈ 19.9 µM)	15.0 (≈ 25.1 µM)	47.5 (≈ 79.5 µM)	15.0 (≈ 25.1 µM)	15.0 (≈ 25.1 µM)	15.0 (≈ 25.1 µM)	15.0 (≈ 25.1 µM)	–	–	–	–	–	–	CCN(CC)CCCC(O)(c1ccc2ccccc2c1)C(c1ccccc1)c1cc2cc(Br)ccc2nc1OC (stereo not shown) [Compound 52]
–	15 (≈ 25.1 µM)	11.9 (≈ 19.9 µM)	–	15 (≈ 25.1 µM)	15 (≈ 25.1 µM)	47.5 (≈ 79.5 µM)	–	–	–	59.8 (≈ 100 µM)	–	–	13.4 (≈ 22.4 µM)	15 (≈ 25.1 µM)	59.8 (≈ 100 µM)	–	–	–	CCN(CC)CCCC(O)(c1ccc2ccccc2c1)C(c1ccccc1)c1cc2cc(Br)ccc2nc1OC (stereo not shown) [Compound 51]
–	–	25.4 (≈ 44.6 µM)	–	–	–	–	–	–	–	–	–	–	–	–	–	166	–	–	COc1nc2ccc(Br)cc2cc1C(c1ccccc1)C(O)(CCCCN(C)C)c1cc(F)ccc1F (stereo not shown) [Compound 13]
–	–	9.0 (≈ 17.8 µM)	–	–	–	–	–	–	–	8.0 (≈ 15.9 µM)	–	–	–	–	–	105	–	–	COc1nc2ccccc2cc1C(c1ccccc1)C(O)(CCCCN(C)C)c1ccc2ccccc2c1 (stereo not shown) [Compound 36]
10.6 (≈ 19.9 µM)	–	11.9 (≈ 22.3 µM)	–	–	–	10.6 (≈ 19.9 µM)	10.6 (≈ 19.9 µM)	21.2 (≈ 39.7 µM)	10.6 (≈ 19.9 µM)	10.6 (≈ 19.9 µM)	10.6 (≈ 19.9 µM)	10.6 (≈ 19.9 µM)	–	–	–	–	–	–	COc1nc2ccc(Br)cc2cc1C(c1ccccc1)C(O)(CCCCN(C)C)c1ccccc1 (stereo not shown) [Compound 21]
4.2 (≈ 7.87 µM)	13.4 (≈ 25.1 µM)	2.1 (≈ 3.94 µM)	10.6 (≈ 19.9 µM)	10.6 (≈ 19.9 µM)	10.6 (≈ 19.9 µM)	–	–	–	–	–	–	–	–	10.6 (≈ 19.9 µM)	10.6 (≈ 19.9 µM)	–	10.6 (≈ 19.9 µM)	–	COc1nc2ccc(Br)cc2cc1C(c1ccccc1)C(O)(CCCCN(C)C)c1ccccc1 (stereo not shown) [Compound 20]
9.2 (≈ 17.7 µM)	–	11.6 (≈ 22.3 µM)	–	–	41.3 (≈ 79.5 µM)	10.4 (≈ 20 µM)	13.1 (≈ 25.2 µM)	–	13.1 (≈ 25.2 µM)	10.4 (≈ 20 µM)	13.1 (≈ 25.2 µM)	–	–	–	26 (≈ 50 µM)	–	–	–	COc1nc2ccc(Br)cc2cc1C(c1ccccc1)C(O)(CCCN(C)C)c1ccccc1 (stereo not shown) [Compound 44]
46.4 (≈ 79.5 µM)	–	11.6 (≈ 19.9 µM)	–	–	–	1.9 (≈ 3.26 µM)	58.4 (≈ 100 µM)	4.1 (≈ 7.03 µM)	36.8 (≈ 63.1 µM)	1.9 (≈ 3.26 µM)	58.4 (≈ 100 µM)	58.4 (≈ 100 µM)	–	–	–	–	–	–	COc1nc2ccc(Br)cc2cc1C(c1ccccc1)C(O)(CCCCN(C)C)c1ccc2ccccc2c1 (stereo not shown) [Compound 23]
–	–	–	8.47 (≈ 15.8 µM)	–	–	–	–	–	–	–	–	–	–	–	–	174	–	10.7 (≈ 20 µM)	COc1nc2ccc(CO)cc2cc1C(c1ccccc1)C(O)(CCCCN(C)C)c1ccc2ccccc2c1 (stereo not shown) [Compound 55]
50.8 (≈ 89.2 µM)	–	57.0 (≈ 100 µM)	57 (≈ 100 µM)	–	–	–	50.8 (≈ 89.2 µM)	–	45.2 (≈ 79.4 µM)	–	50.8 (≈ 89.2 µM)	57.0 (≈ 100 µM)	–	–	50.8 (≈ 89.2 µM)	–	12.8 (≈ 22.5 µM)	–	COc1nc2ccc(Br)cc2cc1C(c1ccccc1)C(O)(CCCN(C)C)c1ccc2ccccc2c1 (stereo not shown) [Compound 46]
52.0 (≈ 100 µM)	–	52.0 (≈ 100 µM)	–	–	–	52.0 (≈ 100 µM)	41.3 (≈ 79.5 µM)	52.0 (≈ 100 µM)	41.3 (≈ 79.5 µM)	41.3 (≈ 79.5 µM)	41.3 (≈ 79.5 µM)	52.0 (≈ 100 µM)	–	–	–	–	–	–	COc1nc2ccc(Br)cc2cc1C(c1ccccc1)C(O)(CCCN(C)C)c1ccccc1 (stereo not shown) [Compound 45]
–	14.3 (≈ 25.1 µM)	–	45.2 (≈ 79.4 µM)	14.3 (≈ 25.1 µM)	14.3 (≈ 25.1 µM)	–	–	–	–	–	–	–	11.4 (≈ 20 µM)	14.3 (≈ 25.1 µM)	57 (≈ 100 µM)	–	11.4 (≈ 20 µM)	14.3 (≈ 25.1 µM)	COc1nc2ccc(Br)cc2cc1C(c1ccccc1)C(O)(CCCN(C)C)c1cccc2ccccc12 (stereo not shown) [Compound 50]
–	–	–	–	–	–	–	–	–	–	–	–	–	–	–	–	203	–	53.2 (≈ 100 µM)	COc1nc2ccc(-c3cccnc3)cc2cc1C(c1ccccc1)C(O)(CCCCN(C)C)c1ccccc1 (stereo not shown) [Compound 42]
–	11.6 (≈ 19.9 µM)	–	14.7 (≈ 25.2 µM)	14.7 (≈ 25.2 µM)	14.7 (≈ 25.2 µM)	–	–	–	–	–	–	–	14.7 (≈ 25.2 µM)	14.7 (≈ 25.2 µM)	14.7 (≈ 25.2 µM)	–	14.7 (≈ 25.2 µM)	14.7 (≈ 25.2 µM)	COc1nc2ccc(Br)cc2cc1C(c1ccccc1)C(O)(CCCCN(C)C)c1cccc2ccccc12 (stereo not shown) [Compound 19]
11.4 (≈ 20 µM)	–	5.1 (≈ 8.95 µM)	–	–	–	10.1 (≈ 17.7 µM)	12.8 (≈ 22.5 µM)	25.4 (≈ 44.6 µM)	2.3 (≈ 4.04 µM)	57.0 (≈ 100 µM)	12.8 (≈ 22.5 µM)	11.4 (≈ 20 µM)	–	–	–	–	–	–	COc1nc2ccc(Br)cc2cc1C(c1ccccc1)C(O)(CCCN(C)C)c1ccc2ccccc2c1 (stereo not shown) [Compound 47]
–	4.3 (≈ 7.01 µM)	9.7 (≈ 15.8 µM)	–	12.2 (≈ 19.9 µM)	9.7 (≈ 15.8 µM)	–	–	–	–	1.9 (≈ 3.1 µM)	–	–	4.3 (≈ 7.01 µM)	4.3 (≈ 7.01 µM)	10.9 (≈ 17.8 µM)	–	1.9 (≈ 3.1 µM)	–	COc1ccc2cc(C(O)(CCCCN(C)C)C(c3ccccc3)c3cc4ccc(Br)cc4nc3OC)ccc2c1 (stereo not shown) [Compound 31]
1.9 (≈ 3.26 µM)	–	1.9 (≈ 3.26 µM)	–	–	–	1.9 (≈ 3.26 µM)	1.9 (≈ 3.26 µM)	1.9 (≈ 3.26 µM)	1.9 (≈ 3.26 µM)	1.9 (≈ 3.26 µM)	0.5 (≈ 0.857 µM)	1.9 (≈ 3.26 µM)	–	–	–	–	–	–	COc1nc2ccc(Br)cc2cc1C(c1ccccc1)C(O)(CCCCN(C)C)c1ccc2ccccc2c1 (stereo not shown) [Compound 24]

Structure (SMILES)	IC90 (μg/ml) SPY 8668 [1] [µg/mL]	IC90 [2] [µg/mL]	IC90 (μg/ml) SPN 6305 [3] [µg/mL]	IC90 [4] [µg/mL]	IC90 [5] [µg/mL]	IC90 [6] [µg/mL]	IC90 (μg/ml) PAE 27853 [7] [µg/mL]	IC90 (μg/ml) STA RMETH [8] [µg/mL]	IC90 (μg/ml) EFA 29212 [9] [µg/mL]	IC90 (μg/ml) LMO 49594 [2] [µg/mL]	IC90 (μg/ml) STA 29213 [4] [µg/mL]	IC90 (μg/ml) STA 25923 [5] [µg/mL]	IC90 (μg/ml) BSU 43639 [6] [µg/mL]	IC90 [1] [µg/mL]	IC90 [8] [µg/mL]	IC90 [9] [µg/mL]	melting point [°C]	IC90 [7] [µg/mL]	IC90 [3] [µg/mL]
COc1nc2ccc(Br)cc2cc1C(c1ccccc1)C(O)(CCCN1CCCC1)c1ccc2ccccc2c1 (racemic) [Compound 49]	47.3 (≈ 79.4 µM)	–	11.9 (≈ 20 µM)	–	–	–	53.1 (≈ 89.2 µM)	59.6 (≈ 100 µM)	47.3 (≈ 79.4 µM)	47.3 (≈ 79.4 µM)	47.3 (≈ 79.4 µM)	59.6 (≈ 100 µM)	59.6 (≈ 100 µM)	–	–	–	–	–	–
COc1nc2ccc(Br)cc2cc1C(c1ccccc1)C(O)(CCCN1CCCC1)c1ccc2ccccc2c1 (racemic) [Compound 48]	47.3 (≈ 79.4 µM)	–	59.6 (≈ 100 µM)	–	–	–	47.3 (≈ 79.4 µM)	9.4 (≈ 15.8 µM)	59.6 (≈ 100 µM)	23.7 (≈ 39.8 µM)	47.3 (≈ 79.4 µM)	9.4 (≈ 15.8 µM)	59.6 (≈ 100 µM)	–	–	–	–	–	–

Source: patent US8841321B2, “Quinoline derivatives as antibacterial agents” (Janssen Pharmaceutica NV, priority 2005, dated 2014)
